Read-outs that look alike come from different tables or passages of the source.
Assays:
Test in all cases: Test C pre/postemergence
Assay type in all cases: in vivo
[1] = test system: bermudagrass (Cynodon dactylon); details: Cynodon dactylon; for pest or weed control at 31 g/ha: 31 g ai/ha; for pest or weed control at 62 g/ha: 62 g ai/ha; for pest or weed control at 125 g/ha: 125 g ai/ha; for pest or weed control at 250 g/ha: 250 g ai/ha
In short: (§1)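 Rating scale 0–100: 0 means no effect, 100 complete control; taken visually 12 to 14 days post-treatment versus controls. Pre- and postemergence greenhouse applications, postemergence at 1- to 4-leaf stage, non-phytotoxic solvent with surfactant as carrier.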

[2] = test system: Surinam grass (Brachiaria decumbens); details: Urochloa decumbens; for pest or weed control at 125 g/ha: 125 g ai/ha; for pest or weed control at 31 g/ha: 31 g ai/ha; for pest or weed control at 62 g/ha: 62 g ai/ha; for pest or weed control at 250 g/ha: 250 g ai/ha
In short: as §1

[3] = test system: crabgrass (Digitaria sanguinalis); details: Digitaria sanguinalis; for pest or weed control at 31 g/ha: 31 g ai/ha; for pest or weed control at 62 g/ha: 62 g ai/ha; for pest or weed control at 125 g/ha: 125 g ai/ha; for pest or weed control at 250 g/ha: 250 g ai/ha
In short: as §1

[4] = test system: johnsongrass (Sorghum halepense); details: Sorghum halepense; for pest or weed control at 31 g/ha: 31 g ai/ha; for pest or weed control at 62 g/ha: 62 g ai/ha; for pest or weed control at 125 g/ha: 125 g ai/ha; for pest or weed control at 250 g/ha: 250 g ai/ha
In short: as §1

soybean (Glycine max) = details: Glycine max; for plant injury at 31 g/ha: 31 g ai/ha; for plant injury at 62 g/ha: 62 g ai/ha; for plant injury at 125 g/ha: 125 g ai/ha; for plant injury at 250 g/ha: 250 g ai/ha
In short: as §1

kochia (Kochia scoparia) = details: Bassia scoparia; for pest or weed control at 31 g/ha: 31 g ai/ha; for pest or weed control at 62 g/ha: 62 g ai/ha
In short: as §1

[5] = post-emergence, Postemergence, scale 0 to 100 (0 no effect, 100 complete control), read-out: Bermudagrass plant response rating
[6] = pre-emergence, Preemergence, scale 0 to 100, 0 no effect, 100 complete control, read-out: Plant response rating, Bermudagrass
[7] = pre-emergence, Preemergence, scale 0 to 100, read-out: Plant response rating, Bermudagrass
[8] = post-emergence, Postemergence, scale 0 to 100 (0 no effect, 100 complete control), read-out: Surinam Grass plant response rating
[9] = pre-emergence, Preemergence, scale 0 to 100, 0 no effect, 100 complete control, read-out: Plant response rating, Surinam Grass
[10] = pre-emergence, Preemergence, scale 0 to 100, read-out: Plant response rating, Surinam Grass
[11] = post-emergence, Postemergence, scale 0 to 100 (0 no effect, 100 complete control), read-out: Crabgrass plant response rating
[12] = pre-emergence, Preemergence, scale 0 to 100, 0 no effect, 100 complete control, read-out: Plant response rating, Crabgrass
[13] = pre-emergence, Preemergence, scale 0 to 100, read-out: Plant response rating, Crabgrass
[14] = post-emergence, Postemergence, scale 0 to 100 (0 no effect, 100 complete control), read-out: Johnsongrass plant response rating
[15] = pre-emergence, Preemergence, scale 0 to 100, 0 no effect, 100 complete control, read-out: Plant response rating, Johnsongrass
[16] = pre-emergence, Preemergence, scale 0 to 100, read-out: Plant response rating, Johnsongrass
[17] = post-emergence, Postemergence, scale 0 to 100 (0 no effect, 100 complete control), read-out: Soybean plant response rating
[18] = pre-emergence, Preemergence, scale 0 to 100, 0 no effect, 100 complete control, read-out: Plant response rating, Soybean
[19] = pre-emergence, Preemergence, scale 0 to 100, read-out: Plant response rating, Soybean
[20] = pre-emergence, Preemergence, scale 0 to 100, 0 no effect, 100 complete control, read-out: Plant response rating, Kochia

Question: `CCOC(=O)c1nc(C2CC2)nc(N)c1F` [Compound 30] was tested. Which pest or weed control at 31 g/ha ([1]; post-emergence, Postemergence, read-out: Plant response rating (scale of 0 to 100), Bermudagrass) did it give?
Answer: 0%

Question: And the pest or weed control at 62 g/ha [1, 5]?
Answer: 0%

Question: And the pest or weed control at 125 g/ha [1, 5]?
Answer: 5%

Question: What about the pest or weed control at 250 g/ha ([1]; post-emergence, Postemergence, scale 0 to 100, read-out: Plant response rating, Bermudagrass) of the same compound?
Answer: 5%

Question: What about the pest or weed control at 31 g/ha [1, 6] of the same compound?
Answer: 0%

Question: And the pest or weed control at 62 g/ha [1, 6]?
Answer: 0%

Question: And the pest or weed control at 125 g/ha [1, 7]?
Answer: 0%

Question: What about the pest or weed control at 250 g/ha [1, 7] of the same compound?
Answer: 0%

Question: What about the pest or weed control at 125 g/ha [2, 8] of the same compound?
Answer: 0%

Question: What about the pest or weed control at 31 g/ha ([2]; post-emergence, Postemergence, read-out: Plant response rating (scale of 0 to 100), Surinam Grass) of the same compound?
Answer: 0%

Question: And the pest or weed control at 62 g/ha [2, 8]?
Answer: 0%

Question: And the pest or weed control at 250 g/ha ([2]; post-emergence, Postemergence, scale 0 to 100, read-out: Plant response rating, Surinam Grass)?
Answer: 35%

Question: What about the pest or weed control at 31 g/ha [2, 9] of the same compound?
Answer: 0%

Question: And the pest or weed control at 62 g/ha [2, 9]?
Answer: 0%

Question: What about the pest or weed control at 125 g/ha [2, 10] of the same compound?
Answer: 0%

Question: What about the pest or weed control at 250 g/ha [2, 10] of the same compound?
Answer: 20%

Question: And the pest or weed control at 31 g/ha ([3]; post-emergence, Postemergence, read-out: Plant response rating (scale of 0 to 100), Crabgrass)?
Answer: 0%

Question: And the pest or weed control at 62 g/ha [3, 11]?
Answer: 0%

Question: And the pest or weed control at 125 g/ha [3, 11]?
Answer: 5%

Question: What about the pest or weed control at 250 g/ha ([3]; post-emergence, Postemergence, scale 0 to 100, read-out: Plant response rating, Crabgrass) of the same compound?
Answer: 50%

Question: And the pest or weed control at 31 g/ha [3, 12]?
Answer: 0%

Question: What about the pest or weed control at 62 g/ha [3, 12] of the same compound?
Answer: 0%

Question: And the pest or weed control at 125 g/ha [3, 13]?
Answer: 70%

Question: And the pest or weed control at 250 g/ha [3, 13]?
Answer: 85%

Question: And the pest or weed control at 31 g/ha ([4]; post-emergence, Postemergence, read-out: Plant response rating (scale of 0 to 100), Johnsongrass)?
Answer: 0%

Question: And the pest or weed control at 62 g/ha [4, 14]?
Answer: 5%

Question: And the pest or weed control at 125 g/ha [4, 14]?
Answer: 10%

Question: And the pest or weed control at 250 g/ha ([4]; post-emergence, Postemergence, scale 0 to 100, read-out: Plant response rating, Johnsongrass)?
Answer: 40%

Question: What about the pest or weed control at 31 g/ha [4, 15] of the same compound?
Answer: 0%

Question: And the pest or weed control at 62 g/ha [4, 15]?
Answer: 0%

Question: What about the pest or weed control at 125 g/ha [4, 16] of the same compound?
Answer: 5%

Question: What about the pest or weed control at 250 g/ha [4, 16] of the same compound?
Answer: 5%

Question: What about the plant injury at 31 g/ha (soybean (Glycine max); post-emergence, Postemergence, read-out: Plant response rating (scale of 0 to 100), Soybean) of the same compound?
Answer: 80%

Question: And the plant injury at 62 g/ha (soybean (Glycine max); [17])?
Answer: 90%

Question: And the plant injury at 125 g/ha (soybean (Glycine max); [17])?
Answer: 90%

Question: What about the plant injury at 250 g/ha (soybean (Glycine max); post-emergence, Postemergence, scale 0 to 100, read-out: Plant response rating, Soybean) of the same compound?
Answer: 95%

Question: And the plant injury at 31 g/ha (soybean (Glycine max); [18])?
Answer: 0%

Question: What about the plant injury at 62 g/ha (soybean (Glycine max); [18]) of the same compound?
Answer: 5%

Question: What about the plant injury at 125 g/ha (soybean (Glycine max); [19]) of the same compound?
Answer: 5%

Question: And the plant injury at 250 g/ha (soybean (Glycine max); [19])?
Answer: 70%

Question: What about the pest or weed control at 31 g/ha (kochia (Kochia scoparia); post-emergence, Postemergence, read-out: Plant response rating (scale of 0 to 100), Kochia) of the same compound?
Answer: 55%

Question: What about the pest or weed control at 62 g/ha (kochia (Kochia scoparia); post-emergence, Postemergence, scale 0 to 100 (0 no effect, 100 complete control), read-out: Kochia plant response rating) of the same compound?
Answer: 90%

Question: And the pest or weed control at 125 g/ha (kochia (Kochia scoparia); post-emergence, Postemergence, 125 g ai/ha, scale 0 to 100 (0 no effect, 100 complete control), read-out: Kochia plant response rating)?
Answer: 100%

Question: And the pest or weed control at 250 g/ha (kochia (Kochia scoparia); post-emergence, Postemergence, 250 g ai/ha, scale 0 to 100, read-out: Plant response rating, Kochia)?
Answer: 100%

Question: What about the pest or weed control at 31 g/ha (kochia (Kochia scoparia); [20]) of the same compound?
Answer: 50%

Question: And the pest or weed control at 62 g/ha (kochia (Kochia scoparia); [20])?
Answer: 70%

— US8802597B2, “Herbicidal pyrimidines” (E I du Pont de Nemours and Company, priority 2003, dated 2014)
